Five molecules from article PMC8144573, “Distinct EH domains of the endocytic TPLATE complex confer lipid and protein binding” (Nature Communications, 2021) can be followed below.

The subject of assay [1] is EH1.2+EH1.1. The assay is described as follows: Peptidome profiling by mass spectrometry, EH1.2+EH1.1 vs GFP. It is filed as binding, Arabidopsis thaliana. From the text: Supplement 41467_2021_23314_MOESM6_ESM.xlsx, sheet "Supplementary Data 3" | column: EH1.2+EH1.1 vs GFP
Assay [2] deals with EH1.2. Kind of assay: Peptidome profiling by mass spectrometry, EH1.2. It counts as binding, Arabidopsis thaliana. How it is done:
(§1) Arabidopsis (Col-0) was grown vertically on 1/2 MS media for 7 days on a nylon mesh, harvested and flash-frozen in liquid nitrogen. Frozen seedlings (3 g/experiment) were ground using mortar and pestle. Proteins were extracted and denatured in 50 mM NaHCO3, 8 M Urea and sonicated three times for 1 min. Protein extracts were rotated for 30 min at room temperature after which the extract was subsequently centrifuged twice at 20,000 × g for 20 min. DTT was added to the supernatant, was added to a final concentration of 5 mM and incubated at 55 °C for 30 min. Proteins were alkylated by the addition of 100 mM iodoacetamide and incubated for 15 min in the dark after which the mix was subsequently diluted with 50 mM NaHCO3 to a final concentration of 2 M urea. Trypsin was added in a ratio of 1:75, protein:trypsin (Sequencing Grade Modified Trypsin, V5117, Promega) and incubated overnight at 37 °C on a rotating wheel.
(§2) Trypsin was removed using Sep-Pak Vac 3cc columns (500 mg, WAT036815, Waters). The extract was acidified using 1% TFA for 15 min on ice and cleared by centrifugation at 1780 × g for 15 min at room temperature. The cleared extract was split into four and applied on an equilibrated Sep-Pak columns (Waters, WAT036815, Lot # 010437235B). The column was pre-wet using 5 ml of 100% MeCN followed by sequential washing with 1 ml, 3 ml, and 6 ml of 0.1% TFA. After application of the extract, the column was washed sequentially with 1 ml, 5 ml, and 6 ml of 0.1% TFA followed by a 2 ml wash with 0.1% TFA, 5% acetonitrile. The peptides were eluted using three times 2 ml 0.1% TFA, 40% acetonitrile. The eluate was lyophilized for two days to remove TFA. 200 µg EH domain or his-GFP were coupled, in triplicate, during one hour to 25 µl Ni Sepharose 6 Fast Flow beads (GE Healthcare, 17-5318-01). Unbound protein was removed by three washing steps of 1 ml each. The lyophilized peptides were solubilized in 20 mM HEPES, 150 mM NaCl buffer, 0.2 mM CaCl2, divided and added to the coupled beads. The peptidome was incubated with the proteins for 4 h after which the beads were washed three times with 1 ml of the binding buffer. Peptides were eluted by the addition of 80 µl 20 mM HEPES pH 8, 8 M Urea. The supernatant was removed from the beads and desalted with Monospin C18 columns (Agilent Technologies, A57003100) after which they were freeze dried.
(§3) Peptides were redissolved in 20 µl loading solvent A (0.1% TFA in water/acetonitrile (98:2, v/v)) of which 5 µl was injected for LC-MS/MS analysis on an Ultimate 3000 RSLC nano LC (Thermo Fisher Scientific, Bremen, Germany) in-line connected to a Q Exactive mass spectrometer (Thermo Fisher Scientific). The peptides were first loaded on a trapping column made in-house (100 μm internal diameter (I.D.) × 20 mm, 5 μm beads C18 Reprosil-HD, Dr. Maisch, Ammerbuch-Entringen, Germany) and after flushing from the trapping column the peptides were separated on a 50 cm µPAC™ column with C18-endcapped functionality (Pharmafluidics, Belgium) kept at a constant temperature of 35 °C. Peptides were eluted by a linear gradient from 98% solvent A′ (0.1% formic acid in water) to 55% solvent B′ (0.1% formic acid in water/acetonitrile, 20/80 (v/v)) in 30 min at a flow rate of 300 nl/min, followed by a 5 min wash reaching 99% solvent B’. The mass spectrometer was operated in data-dependent, positive ionization mode, automatically switching between MS and MS/MS acquisition for the 5 most abundant peaks in a given MS spectrum. The source voltage was 2.2 kV, and the capillary temperature was 250 °C. […]

Assay [3] concerns EH1.1. The assay is described as follows: Peptidome profiling by mass spectrometry, EH1.1. It counts as binding, Arabidopsis thaliana. Set-up: scale not given here. How it is done:
as §1, §2, §3

The subject of assay [4] is SCAMP5. Kind of assay: ES9 treatment, SCAMP5 localization. It is filed as cell-based, Arabidopsis. The conditions noted are these: 10 µM ES9, 5 min pretreatment then 30 min co-treatment with 2 µM FM4-64. How it is done:
For ES9 treatment plants were pretreated for 5 min with 10 µM ES9, a generous gift of the lab of Jenny Russinova (PSB, VIB/Ugent, BE), in 1/2 MS media followed by 30 min co-treatment of ES9 with 2 µM FM4-64.

Assay [5] concerns the target First EH domain of AtEH1/Pan1 (EH1.1), amino acids 1-107, His-tagged (Arabidopsis thaliana). The assay is described as follows: BLI; Octet RED96; His-tagged EH domain on Ni-NTA biosensors, covalently coupled with EDC/NHS; peptide as analyte in increasing concentrations; 20 mM HEPES pH 7.4, 150 mM NaCl, 2 mM CaCl2; 25 °C; steady state, one-site total binding model. In general terms: Biolayer interferometry detects binding as a change in optical thickness at a sensor tip.

Assay [6] has as its target 15N-labeled EH1.1 of AtEH1/Pan1 (amino acids 1-107) for NMR titration (Arabidopsis thaliana). Kind of assay: NMR titration; 1H,15N HSQC of 15N-labeled EH domain with successive addition of unlabeled peptide up to 1:4 excess; 20 mM MES 6.5, 150 mM NaCl, 2 mM CaCl2; chemical shift perturbations fitted to a binding isotherm; apparent.
The target in assay [7] is 15N-labeled EH1.2 of AtEH1/Pan1 (amino acids 346-449) for NMR titration (Arabidopsis thaliana). The description is as above.
Sequence of 15N-labeled EH1.2 of AtEH1/Pan1 (amino acids 346-449) for NMR titration (Arabidopsis thaliana) (main, as listed by the source): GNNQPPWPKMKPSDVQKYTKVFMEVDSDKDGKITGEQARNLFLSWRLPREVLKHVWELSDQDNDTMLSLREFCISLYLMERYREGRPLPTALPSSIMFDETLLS

Sequence of 15N-labeled EH1.1 of AtEH1/Pan1 (amino acids 1-107) for NMR titration (Arabidopsis thaliana) (main, as listed by the source): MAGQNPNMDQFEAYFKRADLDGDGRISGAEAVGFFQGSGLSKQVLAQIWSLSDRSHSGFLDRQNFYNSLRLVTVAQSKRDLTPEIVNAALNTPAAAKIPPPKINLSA

DLTPEIVNAALNTPAAAK: the Difference in assay [1] is given as 7.898; in assay [2] (EH1.2 vs EH1.1+GFP), -3.31; in assay [2] (EH1.2 vs GFP) it was 3.059; in assay [3] (EH1.1 vs EH1.2), 9.679; in assay [3] (EH1.1 vs EH1.2+GFP), 11.2082; in assay [3] (EH1.1 vs GFP) it was 12.7377.

Turning to `O=[N+]([O-])c1ccc(NS(=O)(=O)c2ccc(Br)s2)cc1` [ES-9], the “effect on SCAMP5 localization (in words)” value in assay [4] is “caused SCAMP5 accumulation at the PM”.

With VFMEVDSDKDGKITGEQAR, the Difference is 7.377 in assay [1]; 15.5083 in assay [2] (EH1.2 vs EH1.1+GFP); 15.257 in assay [2] (EH1.2 vs GFP); -15.7597 in assay [3] (EH1.1 vs EH1.2); -8.131 in assay [3] (EH1.1 vs EH1.2+GFP); -0.5027 in assay [3] (EH1.1 vs GFP).

Regarding YHASAIHVPGPEVAR, the Difference in assay [1] came to 7.661; in assay [2] (EH1.2 vs EH1.1+GFP), 3.084; in assay [2] (EH1.2 vs GFP), 7.163; in assay [3] (EH1.1 vs EH1.2), 0.9954; in assay [3] (EH1.1 vs EH1.2+GFP), 4.577; in assay [3] (EH1.1 vs GFP) it was 8.159.

B1: SCAMP5 double NPF peptide (peptide derived from the N-terminus of Secretory Carrier Membrane Protein 5) (peptide)
chain: DPNPFDEDEEIVNPFSK
modifications: not checked
Consider B1, for which the Kd in assay [5] is 59 µM; in assay [6] it was 33 µM; in assay [7], 190 µM.
